{
  "source": "patent US20050245508A1",
  "about": "“Treatment of malignant gliomas with TGF-beta inhibitors” (SCIOS, Inc., priority 2003, published 2005)",
  "key": {"[1]": {"tested_on": "splenocytes / LAK cells against SMA-560", "assay": "Ex vivo immune effector assays, splenocytes of glioma-bearing mice", "assay_type": "in vivo, VM/Dk mice", "experimental": "FIG. 4. Compound No. 79 inhibits the growth of syngeneic SMA-560 experimental gliomas in vivo and promotes immune activation. A. VM/Dk mice received an intracranial injection of 5×10^3 SMA-560 cells. Three days later treatment with Compound No. 79 was initiated, and survival was monitored. B. The animals were treated as in A, but were sacrificed on day 10 to obtain splenocytes. IFN-γ release at 24 h was assessed by Elispot. Data are expressed as cytokine-producing cells per 10^6 effector cells. C. The splenocytes were stimulated with IL-2 for 10 days to generate LAK cells. Their lytic activity was measured by ^51Cr release using SMA-560 as target cells (vehicle, open squares; Compound No. 79, filled squares) (*p<0.05, t-test).\nIL-10, TNF-α and IFN-γ release by immune effector cells was assessed by Elispot assay in a multiscreen-HA 96 well plate (Millipore, Eschborn, Germany), coated with corresponding anti-human capture antibodies (Becton Dickinson). Briefly, 5×10^4 glioma cells were cocultured for 24 h with 105, 2.5×105 or 5×105 HLA-A2-mismatched, prestimulated (5 days) PBL. The cells were removed using double-distilled water, and captured cytokines were visualized using biotinylated antibodies and streptavidin-alkaline phosphatase (Becton Dickinson). Spots were counted on an Elispot reader system (AID, Straβberg, Germany). […]"}, "SMA-560 glioma cells [2]": {"tested_on": "SMA-560 glioma cells", "assay": "Cytotoxicity, LDH release and trypan blue dye exclusion", "assay_type": "cell-based, murine", "conditions": "up to 1 μM for 72 h", "experimental": "(§1) The glioma cells and CCL64 cells were maintained in DMEM supplemented with 2 mM L-glutamine (Gibco Life Technologies, Paisley, UK), 10% FCS (Biochrom KG, Berlin, Germany) and penicillin (100 IU/ml)/streptomycin (100 μg/ml) (Gibco). Growth and viability of the glioma cells was examined by crystal violet, LDH release (Roche, Mannheim, Germany) and trypan blue dye exclusion assays. To assess clonogenicity, 500 SMA-560 cells were seeded into 6 well plates (9.4 cm^2). After formation of visible cell formations, colonies>20 cells were counted."}, "LN-308 targets": {"tested_on": "LN-308 targets", "assay": "51Cr release lysis assay, PBL or T cells precultured with irradiated glioma cells", "assay_type": "cell-based, human", "conditions": "preexposure 1 μM during coculture with irradiated glioma cells, 4 h 51Cr release, FIG. 3A", "experimental": "FIG. 3. Modulation of allogeneic anti-glioma immune responses by Compound No. 79 involves TGF-β antagonism. A. The lytic activity against LN-308 targets of PBL (squares) or purified T cells (triangles) preincubated with irradiated LN-308 cells in the absence (open symbols) or presence (filled symbols) of Compound No. 79 (1 μM) was determined in ^51Cr release assays. B-D. PBL were cultured in the absence (left) or presence (right) of irradiated LN-308 cells for 5 days. The cultures contained Compound No. 79 (1 μM) (filled bars) or not (open bars). Subsequently these effector cells were cocultured for 24 h with fresh non-irradiated LN-308 cells in the absence of Compound No. 79. The release of IFN-γ (B), TNF-α (C) or IL-10 (D) was assessed by Elispot assay. Data are expressed as cytokine-producing cells per 5×10^5 effector cells (n=3, *p<0.05, **p<0.01, t-test, effect of Compound No. 79). […]\nHLA-A2-mismatched PBL or T cells (107/25 cm2 flask) were cocultured with 106 irradiated (30 Gy) glioma cells for 5 days. […] The maximum 51Cr release was determined by addition of NP40 (1%). After 4 h the supernatants were transferred to a Luma-PlateTM-96 (Packard, Dreieich, Germany) and measured. The percentage of 51Cr release was calculated as follows: 100×([experimental release−spontaneous release]/[maximum release−spontaneous release])."}, "[3]": {"tested_on": "CCL64 mink lung epithelial cells", "assay": "CCL64 TGF-β bioassay (growth, crystal violet)", "assay_type": "cell-based", "experimental": "FIG. 1. Prevention of the growth inhibitory effects of recombinant and glioma-derived TGF-b1 and TGF-b2 by a TGF-β inhibitor (Compound No. 79 in Table 2). A. CCL64 cells were exposed to human recombinant TGF-b1 (filled symbols) or TGF-b2 (open symbols) (10 ng/ml) in the absence or presence of increasing concentrations of Comopund No. 79 for 72 h. B. CCL64 cells were maintained in serum-free medium containing heat-activated glioma cell SN (1:1) in the absence or presence of Compound No. 79 for 72 h. Growth was assessed by crystal violet assay (mean and SD, n=3).\nThe levels of bioactive TGF-β were determined using the CCL64 bioassay. Briefly, […] CCL64 cells were adhered to 96 well plates for 24 h, full medium was replaced by serum-free medium, and the cells were exposed to recombinant TGF-β1/2 or glioma cell culture supernatants diluted in serum-free medium for 72 h. Growth was assessed by crystal violet staining at 72 h. Glioma cell supernatants were harvested from confluent cultures maintained for 48 h in serum-free medium and heat-treated (5 min, 85° C.) to activate latent TGF-β (Leitlein et al., J. Immunol., 166:7238-7243 (2001))."}, "glioma cells": {"tested_on": "glioma cells", "assay": "Viability of glioma cells in response to serum deprivation", "assay_type": "cell-based", "conditions": "data not shown", "experimental": "as §1"}, "SMA-560 glioma cells [4]": {"tested_on": "SMA-560 glioma cells", "assay": "Flow cytometric cell cycle analysis", "assay_type": "cell-based, murine", "conditions": "0.01, 0.1 or 1 μM, 48 h, data not shown", "experimental": "The adherent glioma cells were detached nonenzymatically using cell dissociation solution (Sigma). Cell cycle analysis was performed by using fixed and permeabilized glioma cells (70% ethanol). RNA was digested with RNase A (Life Technologies, Inc.). DNA was stained with propidium iodide (50 μg/ml)."}, "[5]": {"assay": "Solubility in drinking water", "assay_type": "physicochemical"}},
  "data": [
    {"smiles": "Fc1ccc(Cl)cc1-c1nc(Nc2ccncc2)c2nccnc2n1", "note": "[Compound No. 79]", "values": [
      {"measurement": "animals with increase over background of IFN-γ release by splenocytes", "setting": "[1]; Elispot, day 7 after initiation of treatment, control 1 of 5, FIG. 4B", "result": "3 of 5"},
      {"measurement": "lytic activity of LAK cells against SMA-560 targets", "setting": "[1]; splenocytes stimulated with IL-2 for 10 days, 51Cr release, FIG. 4C", "result": "enhanced lytic activity"},
      {"measurement": "cytotoxic effects", "setting": "SMA-560 glioma cells [2]", "result": "neiter LDH release nor trypan blue dye exclusion assays revealed cytotoxic effects"},
      {"measurement": "lytic activity of HLA-A2-mismatched PBL or purified T cells", "setting": "LN-308 targets", "result": "significantly enhanced"},
      {"measurement": "EC50", "setting": "[3]; TGF-β1 or TGF-β2 10 ng/ml, 72 h, FIG. 1A, read-out: EC50 of rescue of TGF-β-mediated inhibition of growth", "result": "~30", "unit": "nM"},
      {"measurement": "growth inhibition mediated by glioma cell supernatants", "setting": "[3]; diluted serum-free SMA-560 or LN-308 supernatants, same concentrations, FIG. 1B", "result": "nullified"},
      {"measurement": "viability in response to serum deprivation", "setting": "glioma cells", "result": "did not modulate"},
      {"measurement": "cell cycle arrest", "setting": "SMA-560 glioma cells [4]", "result": "no specific type of cell cycle arrest"},
      {"measurement": "solubility", "setting": "[5]", "result": "relatively poor solubility"}
    ]}
  ]
}
